Non-standard residues stand in square brackets, D forms with d. Residues, ends and D or L forms follow the SMILES beside them. *: point of attachment. Hexenoyl(2E,4S-Me) = CC[C@H](C)/C=C/C(=O)*; Leu(3R-OH) = CC(C)[C@@H](O)[C@H](N)C(=O)O; Gly(octyl) = CCCCCCCC[C@H](N)C(=O)O; X17 = C[C@@H](CN1CCOCC1)N*; Aib = CC(C)(N)C(=O)O; βAla = NCCC(=O)O
What was measured:
[1] = Cytotoxicity assay on L6-cells (Alamar Blue); conditions: rat, Cytotox L6, Cytotoxicity against rat myoblast cells (L6)
[2] = system: rat myoblast (L6-cells); experiment: Cytotoxicity assay on L6-cells (Alamar Blue); conditions: read-out: Cytotox L6; Cytotoxicity against rat myoblast cells (L6)
[3] = system: intracellular Leishmania donovani (L.don. InMac); experiment: Intracellular Leishmania donovani assay (L.don. InMac); format: cell-based; conditions: In vitro inhibition
Text: Tests were done in triplicate.

Compound: CCCCCCCC[C@H](NC(=O)[C@@H]1CCCN1C(=O)/C=C/[C@@H](C)CC)C(=O)N[C@H](C(=O)NC(C)(C)C(=O)N[C@@H](CC(C)C)C(=O)N[C@@H](CC(C)C)C(=O)NC(C)(C)C(=O)NC(C)(C)C(=O)NCCC(=O)N[C@@H](C)CN1CCOCC1)[C@H](O)C(C)C [Compound 5573, (2S)-N-[(1S,2R)-2-hydroxy-3-methyl-1-[(1-methyl-1-{[(1S)-3-methyl-1-{[(1S)-3-methyl-1-{[1-methyl-1-({1-methyl-1-[(2-{[(2S)-1-(morpholin-4-yl)propan-2-yl]carbamoyl}ethyl)carbamoyl]ethyl}carbamoyl)ethyl]carbamoyl}butyl]carbamoyl}butyl]carbamoyl}ethyl)carbamoyl]butyl]-2-{[(2S)-1-[(2E,4S)-4-methylhex-2-enoyl]pyrrolidin-2-yl]formamido}decanamide] ({Hexenoyl(2E,4S-Me)}-P[Gly(octyl)][Leu(3R-OH)][Aib]LL[Aib][Aib][βAla]-X17)
- IC50 at 70 h [1]: 512 nM
- IC50 [2]: 738 nM
- IC50 [3]: 20.4 nM
